From the NIST ThermoML archive (doi:10.1021/je030191w)
± gives the expanded uncertainty stated by the source.

Experiment: xn = mol fraction of the nth substance listed
Details: 101 kPa, Liquid

CCn1cc[n+](C)c1.F[B-](F)(F)F [1-ethyl-3-methylimidazolium tetrafluoroborate] + O
Details	mass density [kg/m3]	viscosity [mPa·s]
293.15 K, x2 = 0	1340.7 ± 50	45.29 ± 2.9
293.15 K, x2 = 0.0995	1336.1 ± 50	34.43 ± 2.3
293.15 K, x2 = 0.2062	1330 ± 50	25.1 ± 1.7
293.15 K, x2 = 0.3047	1322.9 ± 50	19.25 ± 1.3
293.15 K, x2 = 0.4034	1313.4 ± 50	13.76 ± 0.98
293.15 K, x2 = 0.5034	1299.8 ± 50	10.36 ± 0.77
293.15 K, x2 = 0.5998	1284.2 ± 50	7.892 ± 0.61
293.15 K, x2 = 0.7005	1262 ± 50	5.797 ± 0.48
293.15 K, x2 = 0.8011	1225.9 ± 50	4.127 ± 0.36
293.15 K, x2 = 0.9027	1157.4 ± 50	3.035 ± 0.27
298.15 K, x2 = 0	1336.7 ± 50	37.19 ± 2.4
298.15 K, x2 = 0.0995	1332.1 ± 50	29.02 ± 1.9
298.15 K, x2 = 0.2062	1326 ± 50	21.01 ± 1.4
298.15 K, x2 = 0.3047	1318.9 ± 50	15.96 ± 1.1
298.15 K, x2 = 0.4034	1309.5 ± 50	11.45 ± 0.84
298.15 K, x2 = 0.5034	1296 ± 50	8.597 ± 0.66
298.15 K, x2 = 0.5998	1280.6 ± 50	6.975 ± 0.56
298.15 K, x2 = 0.7005	1258.4 ± 50	4.822 ± 0.42
298.15 K, x2 = 0.8011	1222.3 ± 50	3.499 ± 0.31
298.15 K, x2 = 0.9027	1154.2 ± 50	2.584 ± 0.23
303.15 K, x2 = 0	1332.9 ± 50	31.36 ± 2.1
303.15 K, x2 = 0.0995	1328.3 ± 50	24.8 ± 1.7
303.15 K, x2 = 0.2062	1322.2 ± 50	17.9 ± 1.2
303.15 K, x2 = 0.3047	1315.2 ± 50	13.58 ± 0.97
303.15 K, x2 = 0.4034	1305.8 ± 50	9.674 ± 0.72
303.15 K, x2 = 0.5034	1292.3 ± 50	7.384 ± 0.58
303.15 K, x2 = 0.5998	1276.9 ± 50	5.492 ± 0.47
303.15 K, x2 = 0.7005	1254.8 ± 50	3.896 ± 0.34
303.15 K, x2 = 0.8011	1218.7 ± 50	2.962 ± 0.27
303.15 K, x2 = 0.9027	1151.1 ± 50	2.189 ± 0.2
308.15 K, x2 = 0	1329.6 ± 50	25.56 ± 1.7
308.15 K, x2 = 0.0995	1324.9 ± 50	20.53 ± 1.4
308.15 K, x2 = 0.2062	1318.9 ± 50	14.58 ± 1
308.15 K, x2 = 0.3047	1311.9 ± 50	10.93 ± 0.8
308.15 K, x2 = 0.4034	1302.5 ± 50	8.187 ± 0.63
308.15 K, x2 = 0.5034	1288.9 ± 50	6.409 ± 0.52
308.15 K, x2 = 0.5998	1273.5 ± 50	4.707 ± 0.41
308.15 K, x2 = 0.7005	1251.4 ± 50	3.531 ± 0.31
308.15 K, x2 = 0.8011	1215.4 ± 50	2.555 ± 0.23
308.15 K, x2 = 0.9027	1148 ± 50	1.898 ± 0.17
313.15 K, x2 = 0	1325.9 ± 50	21.54 ± 1.5
313.15 K, x2 = 0.0995	1321.2 ± 50	17.96 ± 1.2
313.15 K, x2 = 0.2062	1315.2 ± 50	12.68 ± 0.91
313.15 K, x2 = 0.3047	1308.1 ± 50	9.634 ± 0.72
313.15 K, x2 = 0.4034	1298.7 ± 50	7.165 ± 0.57
313.15 K, x2 = 0.5034	1285.3 ± 50	5.465 ± 0.46
313.15 K, x2 = 0.5998	1269.7 ± 50	4.159 ± 0.36
313.15 K, x2 = 0.7005	1247.5 ± 50	3.133 ± 0.28
313.15 K, x2 = 0.8011	1211.8 ± 50	2.267 ± 0.21
313.15 K, x2 = 0.9027	1145 ± 50	1.689 ± 0.16
318.15 K, x2 = 0	1322.2 ± 50	18.84 ± 1.3
318.15 K, x2 = 0.0995	1317.6 ± 50	15.93 ± 1.1
318.15 K, x2 = 0.2062	1311.6 ± 50	11.16 ± 0.82
318.15 K, x2 = 0.3047	1304.5 ± 50	8.324 ± 0.64
318.15 K, x2 = 0.4034	1295 ± 50	6.357 ± 0.52
318.15 K, x2 = 0.5034	1281.6 ± 50	4.979 ± 0.43
318.15 K, x2 = 0.5998	1266 ± 50	3.63 ± 0.32
318.15 K, x2 = 0.7005	1243.9 ± 50	2.584 ± 0.23
318.15 K, x2 = 0.8011	1208.2 ± 50	2.044 ± 0.19
318.15 K, x2 = 0.9027	1141.8 ± 50	1.53 ± 0.14
323.15 K, x2 = 0	1319.5 ± 50	15.9 ± 1.1
323.15 K, x2 = 0.0995	1314.8 ± 50	13.74 ± 0.98
323.15 K, x2 = 0.2062	1308.8 ± 50	9.797 ± 0.73
323.15 K, x2 = 0.3047	1301.6 ± 50	7.47 ± 0.59
323.15 K, x2 = 0.4034	1292 ± 50	5.692 ± 0.48
323.15 K, x2 = 0.5034	1278.6 ± 50	4.522 ± 0.4
323.15 K, x2 = 0.5998	1263.1 ± 50	3.215 ± 0.29
323.15 K, x2 = 0.7005	1240.7 ± 50	2.512 ± 0.23
323.15 K, x2 = 0.8011	1205 ± 50	1.904 ± 0.18
323.15 K, x2 = 0.9027	1138.5 ± 50	1.439 ± 0.14
